Results: patent US7268146B2, “Ring fused pyrazole derivatives as CRF antagonists” (Palo Alto LLC, priority 2001, dated 2007)
Counter-ions that a name gives are not always drawn.

| SMILES | melting point |
| --- | --- |
| Cc1cc(C)c(N2CCCc3c2nn(C)c3Br)c(C)c1 [Example 3, 3-Bromo-2-methyl-7-(2,4,6-trimethyl-phenyl)-4,5,6,7-tetrahydro-2H-pyrazolo[3,4-b]pyridine] | 94.6 to 97.9 °C |
| CCCC(O)(CCC)c1c2c(nn1C)N(c1c(C)cc(C)cc1Cl)CCC2 [Example 5a, 4-[7-(2-Chloro-4,6-dimethylphenyl)-2-methyl-4,5,6,7-tetrahydro-2H-pyrazolo[3,4-b]pyridin-3-yl]heptan-4-ol] | 129 to 130 °C |
| CCCC(O)(CCC)c1c2c(nn1C)N(c1c(C)cc(C)cc1C)CCC2 [Example 5b, 4-[2-Methyl-7-(2,4,6-trimethylphenyl)-4,5,6,7-tetrahydro-2H-pyrazolo[3,4-b]pyridin-3-yl]heptan-4-ol] | 126 to 127.9 °C |
| CCCC(O)(CCC)c1c2c(nn1C)N(c1c(C)cc(C)cc1C)CCCC2 [Example 5d, 4-[2-Methyl-8-(2,4,6-trimethylphenyl)-2,4,5,6,7,8-hexahydro-1,2,8-triazaazulen-3-yl]heptan-4-ol] | 87 to 91.1 °C |
| CCCC(O)(CCC)c1c2c(nn1C)N(c1ccc(Cl)cc1Cl)CCC2 [Example 5e, 4-[7-(2,4-Dichlorophenyl)-2-methyl-4,5,6,7-tetrahydro-2H-pyrazolo[3,4-b]pyridin-3-yl]heptan-4-ol] | 121.4 to 122.6 °C |
| COCC(O)(COC)c1c2c(nn1C)N(c1c(C)cc(C)cc1C)CCC2 [Example 5f, 1,3-Dimethoxy-2-[2-methyl-7-(2,4,6-trimethylphenyl)-4,5,6,7-tetrahydro-2H-pyrazolo[3,4-b]pyridin-3-yl]propan-2-ol] | 120.3 to 121.8 °C |
| COCCC(O)(COC)c1c2c(nn1C)N(c1c(C)cc(C)cc1C)CCC2 (stereo not drawn) [Example 5g, 1,4-Dimethoxy-2-[2-methyl-7-(2,4,6-trimethylphenyl)-4,5,6,7-tetrahydro-2H-pyrazolo[3,4-b]pyridin-3-yl]butan-2-ol] | 107.9 to 110.9 °C |
| CCCC(O)(c1nccs1)c1c2c(nn1C)N(c1c(C)cc(C)cc1C)CCC2 (stereo not drawn) [Example 5h, 1-[2-Methyl-7-(2,4,6-trimethylphenyl)-4,5,6,7-tetrahydro-2H-pyrazolo[3,4-b]pyridin-3-yl]-1-thiazol-2-ylbutan-1-ol] | 160.1 to 165.6 °C |
| Cc1cc(C)c(N2CCCc3c2nn(C)c3C(O)c2ccco2)c(C)c1 (stereo not drawn) [Example 5i, Furan-2-yl[2-methyl-7-(2,4,6-trimethyl-phenyl)-4,5,6,7-tetrahydro-2H-pyrazolo[3,4-b]pyridin-3-yl]methanol] | 163.1 to 174.4 °C |
| CCC(O)c1c2c(nn1C)N(c1c(C)cc(C)cc1C)CCC2 (stereo not drawn) [Example 5j, 1-[2-Methyl-7-(2,4,6-trimethylphenyl)-4,5,6,7-tetrahydro-2H-pyrazolo[3,4-b]pyridin-3-yl]propan-1-ol] | 179.4 to 180.9 °C |
| CCCC(O)(c1nccn1CC)c1c2c(nn1C)N(c1c(C)cc(C)cc1C)CCC2 (stereo not drawn) [Example 5k, 1-(1-Ethyl-1H-imidazol-2-yl)-1-[2-methyl-7-(2,4,6-trimethylphenyl)-4,5,6,7-tetrahydro-2H-pyrazolo[3,4-b]pyridin-3-yl]butan-1-ol] | 94.9 to 100.9 °C |
| Cc1cc(C)c(N2CCCc3c2nn(C)c3C2(O)CCOCC2)c(C)c1 [Example 5l, 4-[2-Methyl-7-(2,4,6-trimethylphenyl)-4,5,6,7-tetrahydro-2H-pyrazolo[3,4-b]pyridin-3-yl]tetrahydropyran-4-ol] | 193 to 195.1 °C |
| Cc1cc(C)c(N2CCCc3cn(C)nc32)c(Cl)c1 [Example 5m, 7-(2-Chloro-4,6-dimethylphenyl)-2-methyl-4,5,6,7-tetrahydro-2H-pyrazolo[3,4-b]pyridine] | 97 to 98 °C |
| CC/C=C(\CCC)c1c2c(nn1C)N(c1c(C)cc(C)cc1Cl)CCC2 [Example 6a, 7-(2-Chloro-4,6-dimethylphenyl)-2-methyl-3-(1-propylbut-1-enyl)-4,5,6,7-tetrahydro-2H-pyrazolo[3,4-b]pyridine] | 86.7 to 88.2 °C |
| CC/C=C(\CCC)c1c2c(nn1C)N(c1c(C)cc(C)cc1C)CCC2 [Example 6b, 2-Methyl-3-(1-propylbut-1-enyl)-7-(2,4,6-trimethylphenyl)-4,5,6,7-tetrahydro-2H-pyrazolo[3,4-b]pyridine] | 101.6 to 102.6 °C |
| CC/C=C(\CCC)c1c2c(nn1C)N(c1c(C)cc(C)cc1C)CCCC2 [Example 6d, 2-Methyl-3-(1-propylbut-1-enyl)-8-(2,4,6-trimethylphenyl)-2,4,5,6,7,8-hexahydro-1,2,8-triazaazulene] | 101.9 to 103.9 °C |
| CCCC(c1cccs1)c1c2c(nn1C)N(c1c(C)cc(C)cc1C)CCC2 (stereo not drawn) [Example 7c, 2-Methyl-3-(1-thiophen-2-ylbutyl)-7-(2,4,6-trimethylphenyl)-4,5,6,7-tetrahydro-2H-pyrazolo[3,4-b]pyridine] | 87.6 to 90.3 °C |
| CCCC(CCC)c1c2c(nn1C)N(c1c(C)cc(C)cc1C)CCCC2 [Example 7d, 2-Methyl-3-(1-propylbutyl)-8-(2,4,6-trimethylphenyl)-2,4,5,6,7,8-hexahydro-1,2,8-triazaazulene] | 96 to 98.1 °C |
| Cc1cc(C)c(N2CCCc3c2nn(C)c3C(=O)O)c(Cl)c1 [Example 8a, 7-(2-Chloro-4,6-dimethylphenyl)-2-methyl-4,5,6,7-tetrahydro-2H-pyrazolo[3,4-b]pyridine-3-carboxylic acid] | 247.8 to 248.3 °C |
| Cc1cc(C)c(N2CCCc3c2nn(C)c3C(=O)O)c(C)c1 [Example 8b, 7-(2,4,6-Trimethylphenyl)-2-methyl-4,5,6,7-tetrahydro-2H-pyrazolo[3,4-b]pyridine-3-carboxylic acid] | 228.6 to 233.9 °C |
| Cc1cc(C)c(N2CCCc3c2nn(C)c3NC(=O)OC(C)(C)C)c(Cl)c1 [Example 8c, [7-(2-Chloro-4,6-dimethylphenyl)-2-methyl-4,5,6,7-tetrahydro-2H-pyrazolo[3,4-b]pyridin-3-yl]carbamic acid tert-butyl ester] | 171.4 to 175.7 °C |
| CCOC(=O)Nc1c2c(nn1C)N(c1c(C)cc(C)cc1Cl)CCC2 [Example 8d, [7-(2-Chloro-4,6-dimethylphenyl)-2-methyl-4,5,6,7-tetrahydro-2H-pyrazolo[3,4-b]pyridin-3-yl]carbamic acid ethyl ester] | 204 to 207.8 °C |
| CCCN(CCC)c1c2c(nn1C)N(c1c(C)cc(C)cc1Cl)CCC2 [Example 9a, [7-(2-Chloro-4,6-dimethylphenyl)-2-methyl-4,5,6,7-tetrahydro-2H-pyrazolo[3,4-b]pyridin-3-yl]dipropylamine] | 90 to 91 °C |

Second part, the molecule after the results:

| melting point | SMILES |
| --- | --- |
| 236.4 to 241 °C | Cc1cc(C)c(N2CCCc3c2nn(C)c3CN2CCc3ccccc3C2)c(C)c1 (as salt: hydrochloride) [Example 11, 2-[2-Methyl-7-(2,4,6-trimethyl-phenyl)-4,5,6,7-tetrahydro-2H-pyrazolo[3,4-b]pyridin-3-ylmethyl]-1,2,3,4-tetrahydroisoquinolinedihydrochloride] |
| 88.9 to 91.5 °C | CCCN(CCC)c1c2c(nn1C)N(c1c(C)cc(C)cc1C)CCC2 [Example 9ae, [2-Methyl-7-(2,4,6-trimethylphenyl)-4,5,6,7-tetrahydro-2H-pyrazoio[3,4-b]pyridin-3-yl]-dipropylamine] |
| 99.3 to 104.9 °C | CCC(CC)Nc1c2c(nn1C)N(c1c(C)cc(C)cc1C)CCC2 [Example 9af, (1-Ethylpropyl)-[2-methyl-7-(2,4,6-trimethyl-phenyl)-4,5,6,7-tetrahydro-2H-pyrazolo[3,4-b]pyridin-3-yl]-amine] |
| 96.5 to 102.5 °C | CCC(COC)Nc1c2c(nn1C)N(c1c(C)cc(C)cc1C)CCC2 (stereo not drawn) [Example 9aj, (1-Methoxymethylpropyl)-[2-methyl-7-(2,4,6-trimethylphenyl)-4,5,6,7-tetrahydro-2H-pyrazolo[3,4-b]pyridin-3-yl]-amine] |
| 100.1 to 104.4 °C | CCCC(COC)Nc1c2c(nn1C)N(c1c(C)cc(C)cc1C)CCC2 (stereo not drawn) [Example 9ak, (1-Methoxymethylbutyl)-[2-methyl-7-(2,4,6-trimethylphenyl)-4,5,6,7-tetrahydro-2H-pyrazolo[3,4-b]pyridin-3-yl]-amine] |
| 120.6 to 122 °C | CCCN(CC1CC1)C(=O)c1c2c(nn1C)N(c1c(C)cc(C)cc1Cl)CCC2 [Example 10a, 7-(2-Chloro-4,6-dimethylphenyl)-2-methyl-4,5,6,7-tetrahydro-2H-pyrazolo[3,4-b]pyridine-3-carboxylic acidcyclopropylmethylpropylamide] |
| 80.3 to 87.7 °C | Cc1cc(C)c(N2CCCc3c2nn(C)c3C(=O)N2CCc3ccccc3C2)c(C)c1 [Example 10b, (3,4-Dihydro-1H-isoquinolin-2-yl)-[2-methyl-7-(2,4,6-trimethyl-phenyl)-4,5,6,7-tetrahydro-2H-pyrazolo[3,4-b]pyridin-3-yl]-methanone] |
| 226 to 228 °C | CCC(=O)Nc1c2c(nn1C)N(c1c(C)cc(C)cc1C)CCC2 [Example 10c, N-[2-Methyl-7-(2,4,6-trimethylphenyl)-4,5,6,7-tetrahydro-2H-pyrazolo[3,4-b]pyridin-3-yl]propionamide] |
| 133.8 to 135 °C | COCC(=O)Nc1c2c(nn1C)N(c1c(C)cc(C)cc1C)CCC2 [Example 10d, 2-Methoxy-N-[2-methyl-7-(2,4,6-trimethyl-phenyl)-4,5,6,7-tetrahydro-2H-pyrazolo[3,4-b]pyridin-3-yl]acetamide] |
| 169.9 to 172.8 °C | COc1cccc(OC)c1-c1c2c(nn1C)N(c1c(C)cc(C)cc1C)CCC2 [Example 13b, 3-(2,6-Dimethoxyphenyl)-2-methyl-7-(2,4,6-trimethylphenyl)-4,5,6,7-tetrahydro-2H-pyrazolo[3,4-b]pyridine] |
